Patent publication US9725414B2, “Fungicidal N-bicycloalkyl and N-tricycloalkyl pyrazole-4-(thio)carboxamide derivatives” (priority 2011, dated 2017)
Where two headings read alike, the source gives them in different places.

Legend:
Alternaria solani = assay: Example C: in vivo preventive test on Alternaria solani (tomato); details: 500 ppm of active ingredient, evaluated 7 days after inoculation
Description: (§1) In Vivo Preventive Test on Alternaria solani (Tomato) Solvent: 49 parts by weight of N,N-dimethylformamide Emulsifier: 1 part by weight of alkylarylpolyglycolether To produce a suitable preparation of active compound, 1 part by weight of active compound is mixed with the stated amounts of solvent and emulsifier, and the concentrate is diluted with water to the desired concentration. To test for preventive activity, young plants are sprayed with the preparation of active compound at the stated rate of application. One day after this treatment, the plants are inoculated with an aqueous spore suspension of Alternaria solani. The plants remain for one day in an incubation cabinet at approximately 22° C. and a relative atmospheric humidity of 100%. Then the plants are placed in an incubation cabinet at approximately 20° C. and a relative atmospheric humidity of 96%.

Pyrenophora teres [1] = assay: Example E: in vivo preventive test on Pyrenophora teres (barley), DMF/emulsifier preparation; details: 500 ppm of active ingredient, evaluated 7-9 days after inoculation
Description: as §1, with “Pyrenophora teres (Barley)” for “Alternaria solani (Tomato)”, “alkylaryl polyglycol ether” for “alkylarylpolyglycolether”, “Pyrenophora teres.” for “Alternaria solani.”, “48 hours” for “one day”, “at” for “at approximately”, “100%.” for “100%. Then the plants are placed in an incubation cabinet at approximately 20° C. and a relative atmospheric humidity of 96%.”

Puccinia recondita = assay: Example M: in vivo preventive test on Puccinia recondita (brown rust on wheat); details: 500 ppm of active ingredient, grading 12 days after contamination
Description: In Vivo Preventive Test on Puccinia recondita (Brown Rust on Wheat) […] Wheat plants (“Scipion” variety), sown in starter cups on a 50/50 peat soil pozzolana substrate and grown at 22° C., are treated at the 1 leaf stage (10 cm height) by spraying with the active ingredient prepared as described above. Plants, used as controls, are treated with the mixture of acetone/tween/DMSO/water not containing the active material. After 24 hours, the plants are contaminated by spraying the leaves with an aqueous suspension of Puccinia recondite spores (100 000 spores per mL). The spores are collected from an infected plant and are suspended in water containing 2.5 mL/L of Tween 80 at 10%. […] Grading (% of efficacy) is carried out 12 days after the contamination, in comparison with the control plants.

Uromyces appendiculatus = assay: Example Q: in vivo preventive test on Uromyces appendiculatus (bean rust); details: Uromyces appendiculatus on bean plants, 500 ppm of active ingredient, grading 11 days after contamination
Description: In Vivo Preventive Test on Uromyces appendiculatus (Bean Rust) […] Bean plants (“Saxa” variety), sown in starter cups on a 50/50 peat soil pozzolana substrate and grown at 24° C., are treated at the 2 leaf stage (9 cm height) by spraying with the active ingredient prepared as described above. Plants, used as controls, are treated with the mixture of acetone/tween/DMSO/water not containing the active material. After 24 hours, the plants are contaminated by spraying the leaves with an aqueous suspension of Uromyces appendiculatus spores (150 000 spores per mL). The spores are collected from infected plants and are suspended in water containing 2.5 mL/L of Tween 80 at 10%. […] Grading (% of efficacy) is carried out 11 days after the contamination, in comparison with the control plants.

Sphaerotheca fuliginea = assay: Example B: in vivo preventive test on Sphaerotheca fuliginea (powdery mildew on cucurbits), gherkin plants; details: 500 ppm of active ingredient, grading 12 days after contamination
Description: In Vivo Preventive Test on Sphaerotheca fuliginea (Powdery Mildew on Cucurbits) […] Gherkin plants (“Vert petit de Paris” variety), sown in starter cups on a 50/50 peat soil-pozzolana substrate and grown at 24° C. are treated at the Z11 cotyledon stage by spraying with the active ingredient prepared as described above. Plants, used as controls, are treated with the mixture of acetone/tween/DMSO/water not containing the active material. After 24 hours, the plants are contaminated by spraying the cotyledons with an aqueous suspension of Sphaerotheca fuliginea spores (100 000 spores per mL). The spores are collected from infected plants.

Pyrenophora teres [2] = assay: Example F: in vivo preventive test on Pyrenophora teres (barley), acetone/tween/DMSO preparation; details: 500 ppm of active ingredient, barley, grading 14 days after contamination
Description: In Vivo Preventive Test on Pyrenophora teres (Barley) […] Barley plants (“Plaisant” variety), sown in starter cups on a 50/50 peat soil pozzolana substrate and grown at 22° C., are treated at the 1 leaf stage (10 cm height) by spraying with the active ingredient prepared as described above. Plants, used as controls, are treated with the mixture of acetone/tween/DMSO/water not containing the active material. After 24 hours, the plants are contaminated by spraying the leaves with an aqueous suspension of Pyrenophora teres spores (12 000 spores per mL). The spores are collected from a 12-day-old culture. […] Grading (% of efficacy) is carried out 14 days after the contamination, in comparison with the control plants.

Septoria tritici = assay: Example I: in vivo preventive test on Septoria tritici (wheat), acetone/tween/DMSO preparation; details: 500 ppm of active ingredient, grading 24 days after contamination
Description: In Vivo Preventive Test on Septoria tritici (Wheat) […] Wheat plants (“Scipion” variety), sown in starter cups on a 50/50 peat soil pozzolana substrate and grown at 22° C., are treated at the 1 leaf stage (10 cm height) by spraying with the active ingredient prepared as described above. Plants, used as controls, are treated with the mixture of acetone/tween/DMSO/water not containing the active material. After 24 hours, the plants are contaminated by spraying the leaves with an aqueous suspension of cryopreserved Septoria tritici spores (500 000 spores per mL). The contaminated wheat plants are incubated for 72 hours at 18° C. and at 100% relative humidity, and then for 21 days at 90% relative humidity. Grading (% of efficacy) is carried out 24 days after the contamination, in comparison with the control plants.

[3] = log P by HPLC on reversed-phase column (C 18), EEC Directive 79831 Annex V.A8; format: physicochemical
Description: In table 1, the log P values were determined in accordance with EEC Directive 79831 Annex V.A8 by HPLC (High Performance Liquid Chromatography) on a reversed-phase column (C 18), using the method described below: Temperature: 40° C.; Mobile phases: 0.1% aqueous formic acid and acetonitrile; linear gradient from 10% acetonitrile to 90% acetonitrile. Calibration was carried out using unbranched alkan-2-ones (comprising 3 to 16 carbon atoms) with known log P values (determination of the log P values by the retention times using linear interpolation between two successive alkanones). lambda-max-values were determined using UV-spectra from 200 nm to 400 nm and the peak values of the chromatographic signals.

Botrytis cinerea = assay: Example P: in vivo preventive test on Botrytis cinerea (grey mould), gherkin plants; details: 500 ppm of active ingredient, grading 4 to 5 days after contamination
Description: In Vivo Preventive Test on Botrytis cinerea (Grey Mould) […] Gherkin plants (“Vert petit de Paris” variety), sown in starter cups on a 50/50 peat soil pozzolana substrate and grown at 24° C. are treated at the Z11 cotyledon stage by spraying with the active ingredient prepared as described above. Plants, used as controls, are treated with the mixture of acetone/tween/DMSO/water not containing the active material. After 24 hours, the plants are contaminated by spraying the cotyledons with an aqueous suspension of cryopreserved Botrytis cinerea spores (50 000 spores per mL). The spores are suspended in a nutrient solution composed of 10 g/L of PDB, 50 g/L of D-Fructose, 2 g/L of NH4NO3 and 1 g/L of KH2PO4. The contaminated gherkin plants are incubated at 17° C. and at 90% relative humidity. Grading (% of efficacy) is carried out 4 to 5 days after the contamination, in comparison with the control plants.

[4] = HPLC reversed-phase C 18, 40° C., 0.1% aqueous formic acid and acetonitrile gradient, several values = mixture of two or more isomers

logP [3, 4] | logP [3] | SMILES | Efficacy (Alternaria solani) [%] | Efficacy (Pyrenophora teres [1]) [%] | Efficacy (Puccinia recondita) [%] | Efficacy (Uromyces appendiculatus) [%] | Efficacy (Sphaerotheca fuliginea) [%] | Efficacy (Pyrenophora teres [2]) [%] | Efficacy (Septoria tritici) [%] | Efficacy (Botrytis cinerea) [%]
2.14 | – | Cn1cc(C(=O)NC2CC3CCC2C3)c(C(F)F)n1 (stereo not drawn) [Example 46] | – | – | – | 85 | – | – | 75 | 88
2.64 | – | Cn1nc(C(F)F)c(C(=O)NC2CC3CCC2C3)c1Cl (stereo not drawn) [Example 47] | – | – | – | 83 | – | 88 | 83 | 97
2.46 | – | Cn1nc(C(F)F)c(C(=O)NC2CC3CCC2C3)c1F (stereo not drawn) [Example 48] | – | – | 75 | 87 | – | 88 | 83 | 83
3.50 | – | Cn1cc(C(=O)N(CC2CCC3CCCC32)C2CC2)c(C(F)F)n1 (stereo not drawn) [Example 59] | – | – | 89 | 75 | 100 | 100 | – | 100
3.92 | – | Cn1cc(C(=O)N(CC2CCC3CCCC3C2)C2CC2)c(C(F)F)n1 (stereo not drawn) [Example 63] | – | – | 81 | – | 100 | 79 | 97 | 85
– | 3.23 | Cn1nc(C(F)F)c(C(=O)N(CC2CC3C=CC2C3)C2CC2)c1F (stereo not drawn) [Example 73] | – | – | – | – | – | 100 | – | 93
3.67 | – | CON(C(=O)c1c(C(F)F)nn(C)c1F)C(C)C1CC2CCC1C2 (stereo not drawn) [Example 99] | – | – | 95 | – | 100 | 100 | – | 100

Further lines, the compound ahead of its results:

SMILES | logP [3, 4] | logP [3] | Efficacy (Alternaria solani) [%] | Efficacy (Pyrenophora teres [1]) [%] | Efficacy (Puccinia recondita) [%] | Efficacy (Uromyces appendiculatus) [%] | Efficacy (Sphaerotheca fuliginea) [%] | Efficacy (Pyrenophora teres [2]) [%] | Efficacy (Septoria tritici) [%] | Efficacy (Botrytis cinerea) [%]
Cn1nc(C(F)F)c(C(=O)N(C2CC2)C2CCC3CCCC3C2)c1Cl (mixture of isomers) [Example 21] | – | – | 90 | 100 | 94 | 98 | – | – | – | –
Cn1nc(C(F)F)c(C(=O)N(C2CC2)C2CCC3CCCCC3C2)c1F (mixture of isomers) [Example 38] | – | – | 95 | 100 | 100 | 100 | 93 | 100 | 96 | –
Cn1cc(C(=O)NC2CCC3CCCC32)c(C(F)F)n1 (stereo not drawn) [Example 1] | 2.51 | – | – | – | 94 | 95 | – | – | 80 | –
Cn1cc(C(=O)N(C2CC2)C2CC3CCCCC3C2)c(C(F)F)n1 (stereo not drawn) [Example 13] | 3.61 | – | – | – | – | 91 | 80 | 97 | 90 | 100
CC1C(NC(=O)c2c(C(F)F)nn(C)c2Cl)CC2CC1C2(C)C (stereo not drawn) [Example 51] | – | 3.79 | – | – | – | – | – | – | – | 95
CC1C(NC(=O)c2cn(C)nc2C(F)F)CC2CC1C2(C)C (stereo not drawn) [Example 52] | – | 3.19 | – | – | – | – | – | – | – | 80
CC1C(NC(=O)c2c(C(F)F)nn(C)c2Cl)CC2CC1C2(C)C (stereo not drawn) [Example 53] | 3.79 | – | – | – | – | – | – | 75 | 83 | 99
CC1C(NC(=O)c2cn(C)nc2C(F)F)CC2CC1C2(C)C (stereo not drawn) [Example 54] | – | 3.19 | – | – | – | – | – | – | – | 85
Cn1nc(C(F)F)c(C(=O)NC23CC4CC(CC(C4)C2)C3)c1F [Example 56] | – | 3.57 | – | – | – | – | – | – | 83 | 100
Cn1nc(C(F)F)c(C(=O)NC23CC4CC(CC(C4)C2)C3)c1Cl [Example 57] | – | 3.81 | – | – | – | – | – | – | 75 | 75
CON(C(=O)c1cn(C)nc1C(F)F)C(C)C1CC2CCC1C2 (stereo not drawn) [Example 100] | 3.42 | – | – | – | 90 | 100 | 100 | 100 | – | 100
